The assay relates to L1210 leukemia ip in BDF1 mice, survival T/C. The experiment in a line: NCI In Vivo Anticancer Drug Screen. Data for tumor model L1210 Leukemia (intraperitoneal) in B6D2F1 (BDF1) mice. The conditions noted are these: endpoint: mean survival time, higher = longer survival. Summed up:
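Transplantable tumor model; survival measured in treated vs vehicle control mice. Value = treated/control.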

Setting [1] is: dose: 100.0 mg/kg/injection, schedule: Q04DX003 (ip), vehicle: saline with Tween-80.
Setting [2] is: dose: 100.0 mg/kg/injection, schedule: Q01DX009 (ip), vehicle: Klucel (hydroxypropylcellulose) (HPC).
Setting [3] is: dose: 400.0 mg/kg/injection, schedule: Q01DX009 (ip), vehicle: Klucel (hydroxypropylcellulose) (HPC).
Setting [4] is: dose: 100.0 mg/kg/injection, schedule: Q04DX002 (ip), vehicle: saline with Tween-80.
The mark [5] stands for this setting: dose: 200.0 mg/kg/injection, schedule: Q04DX002 (ip), vehicle: saline with Tween-80.
Where [6] appears, read: dose: 100.0 mg/kg/injection, schedule: Q04DX003 (ip), vehicle: Klucel (hydroxypropylcellulose) (HPC).
Where [7] appears, read: dose: 200.0 mg/kg/injection, schedule: Q01DX009 (ip), vehicle: Klucel (hydroxypropylcellulose) (HPC).
The mark [8] stands for this setting: dose: 200.0 mg/kg/injection, schedule: Q04DX003 (ip), vehicle: Klucel (hydroxypropylcellulose) (HPC).
Setting [9] is: dose: 400.0 mg/kg/injection, schedule: Q04DX002 (ip), vehicle: saline with Tween-80.

Values joined by “and” are separate entries in the source; they are usually repeats but may differ in a detail not shown here. Equal entries are not always repeated. Toxic doses and inconclusive results are not listed.

We go through 19 molecules from PubChem BioAssay AID248 (DTP/NCI, 2004).

For `CC[N+]1(Cc2ccccc2)CC2(CCCCC2)ON2C1CC(C)C2(C)C` (stereo not given), the T/C under setting [1] is 91 % of control.

Turning to `CC(C)C(=O)Nc1ccc(S(=O)(=O)NCCO)cc1`, the T/C is, setting by setting: under setting [1], 97 % of control; (dose: 200.0 mg/kg/injection, schedule: Q04DX003 (ip), vehicle: saline with Tween-80) 92 % of control; (dose: 400.0 mg/kg/injection, schedule: Q04DX003 (ip), vehicle: saline with Tween-80) 92 % of control.

On to `O=C(Nc1cccc(Cl)c1Cl)Oc1ccc(OCc2ccccc2)cc1`, for which the T/C was 87 % of control under setting [2] and 95 % of control under setting [3].

As to `CCOC(=O)/C=C(\C#N)CC(=O)OCC`, the T/C (dose: 50.0 mg/kg/injection, schedule: Q01DX005 (ip), vehicle: saline) is 102 % of control; the T/C (dose: 100.0 mg/kg/injection, schedule: Q01DX005 (ip), vehicle: saline) was 102 % of control; the T/C (dose: 200.0 mg/kg/injection, schedule: Q01DX005 (ip), vehicle: saline) is 96 % of control; the T/C (dose: 400.0 mg/kg/injection, schedule: Q01DX005 (ip), vehicle: saline) is 94 % of control.

Consider `O=C1C2C3C=CC(CC3)C2C(=O)C2C3C=CC(C3)C12` (stereo not given), for which the T/C runs as follows: under setting [4], 101 % of control; under setting [5], 93 % of control.

As to `CC1=CC(=N/S(=O)(=O)c2ccccc2)/C2CC(C)=C(C)CC2/C1=N\S(=O)(=O)c1ccccc1` (stereo not given), the T/C under setting [2] was 95 % of control; the T/C under setting [6] was 95 % of control; the T/C under setting [7] is 104 % of control; the T/C under setting [8] is 92 % of control; the T/C under setting [3] was 103 % of control.

Take `C[n+]1cccc(NC(=O)c2ccc(NC(=O)c3ccc(C(=O)Nc4ccc(NC(=N)N)cc4)cc3)cc2)c1`: the T/C (dose: 0.3 mg/kg/injection, schedule: Q01DX009 (ip), vehicle: saline) was 118 % of control; the T/C (dose: 0.6 mg/kg/injection, schedule: Q01DX009 (ip), vehicle: saline) is 123 % of control; the T/C (dose: 1.3 mg/kg/injection, schedule: Q01DX009 (ip), vehicle: saline) was 155 % of control; the T/C (dose: 2.0 mg/kg/injection, schedule: Q01DX009 (ip), vehicle: saline) is 221 % of control; the T/C (dose: 3.0 mg/kg/injection, schedule: Q01DX009 (ip), vehicle: saline) was 294 % of control; the T/C (dose: 5.0 mg/kg/injection, schedule: Q01DX001 (ip), vehicle: saline) is 119 % of control and 124 % of control. Besides, the T/C by setting is: (dose: 5.0 mg/kg/injection, schedule: Q01DX009 (ip), vehicle: saline) 193 % of control; (dose: 15.0 mg/kg/injection, schedule: Q01DX009 (ip), vehicle: saline) 123 % of control; (dose: 20.0 mg/kg/injection, schedule: Q01DX001 (ip), vehicle: saline) 178 % of control; (dose: 40.0 mg/kg/injection, schedule: Q01DX001 (ip), vehicle: saline) 201 % of control and 249 % of control.

With `C[P+](C)(Cc1ccc([N+](=O)[O-])cc1)c1ccccc1`, the T/C (dose: 12.0 mg/kg/injection, schedule: Q04DX003 (ip), vehicle: saline) is 98 % of control; the T/C (dose: 25.0 mg/kg/injection, schedule: Q01DX009 (ip), vehicle: saline) is 105 % of control; the T/C (dose: 25.0 mg/kg/injection, schedule: Q04DX003 (ip), vehicle: saline) was 104 % of control; the T/C (dose: 50.0 mg/kg/injection, schedule: Q01DX009 (ip), vehicle: saline) was 109 % of control; the T/C (dose: 50.0 mg/kg/injection, schedule: Q04DX003 (ip), vehicle: saline) is 104 % of control.

As for `O=[N+]([O-])/C=C/c1ccccc1Br`, the T/C was 96 % of control (dose: 18.75 mg/kg/injection, schedule: Q04DX003 (ip), vehicle: Klucel (hydroxypropylcellulose) (HPC)); 102 % of control (dose: 37.5 mg/kg/injection, schedule: Q04DX003 (ip), vehicle: Klucel (hydroxypropylcellulose) (HPC)); 104 % of control (dose: 75.0 mg/kg/injection, schedule: Q04DX003 (ip), vehicle: Klucel (hydroxypropylcellulose) (HPC)).

For `COc1cc(C(=O)N2CCN(c3ccccc3)CC2)c2ccccc2n1`, the T/C reads like this: (dose: 100.0 mg/kg/injection, schedule: Q01DX001 (ip), vehicle: other) 98 % of control; (dose: 200.0 mg/kg/injection, schedule: Q01DX001 (ip), vehicle: other) 112 % of control; (dose: 400.0 mg/kg/injection, schedule: Q01DX001 (ip), vehicle: other) 101 % of control.

For the molecule `CCc1cccc(OC/C=C(\C)CC/C=C(\C)CCC2OC2(C)C)c1` (stereo not given), the T/C reads like this: under setting [4], 103 % of control; under setting [5], 97 % of control; under setting [9], 100 % of control.

For `CCC[N+](C)(C)CC[N+](C)(C)CCC`, the T/C runs as follows: (dose: 100.0 mg/kg/injection, schedule: Q01DX001 (ip), vehicle: saline) 99 % of control; (dose: 200.0 mg/kg/injection, schedule: Q01DX001 (ip), vehicle: saline) 103 % of control; (dose: 400.0 mg/kg/injection, schedule: Q01DX001 (ip), vehicle: saline) 101 % of control.

Turning to `O=C(O)c1ccccc1Br.[Ni]`, the T/C runs as follows: (dose: 3.0 mg/kg/injection, schedule: Q01DX009 (ip), vehicle: Klucel (hydroxypropylcellulose) (HPC)) 91 % of control; (dose: 6.0 mg/kg/injection, schedule: Q01DX009 (ip), vehicle: Klucel (hydroxypropylcellulose) (HPC)) 94 % of control; (dose: 12.0 mg/kg/injection, schedule: Q01DX009 (ip), vehicle: Klucel (hydroxypropylcellulose) (HPC)) 94 % of control; (dose: 12.5 mg/kg/injection, schedule: Q01DX001 (ip), vehicle: Klucel (hydroxypropylcellulose) (HPC)) 97 % of control; (dose: 25.0 mg/kg/injection, schedule: Q01DX001 (ip), vehicle: Klucel (hydroxypropylcellulose) (HPC)) 93 % of control; (dose: 25.0 mg/kg/injection, schedule: Q01DX009 (ip), vehicle: Klucel (hydroxypropylcellulose) (HPC)) 88 % of control. The T/C (dose: 50.0 mg/kg/injection, schedule: Q01DX001 (ip), vehicle: Klucel (hydroxypropylcellulose) (HPC)) was 103 % of control.

Turning to `Nc1cc2ccccc2cn1`, the T/C is 112 % of control under setting [6]; 102 % of control under setting [8]; 107 % of control (dose: 400.0 mg/kg/injection, schedule: Q04DX003 (ip), vehicle: Klucel (hydroxypropylcellulose) (HPC)).

Take `C=CCNC(=S)Nc1ccc(OC(=O)Nc2ccc(Cl)c(Cl)c2)cc1`: the T/C is 102 % of control under setting [4], 97 % of control under setting [5] and 105 % of control under setting [9].

`CCCCCCCCCCCC(=O)Nc1cc(C)ccc1N=Nc1ccc(C)cc1`: the T/C is, setting by setting: (dose: 50.0 mg/kg/injection, schedule: Q01DX009 (ip), vehicle: Klucel (hydroxypropylcellulose) (HPC)) 86 % of control; under setting [2], 95 % of control; under setting [7], 88 % of control; under setting [3], 90 % of control.

Regarding `COC(=O)c1cc(N)ccc1Br`, the T/C is 93 % of control (dose: 100.0 mg/kg/injection, schedule: Q04DX003 (sc), vehicle: olive oil, sesame oil, peanut oil); 111 % of control (dose: 200.0 mg/kg/injection, schedule: Q04DX003 (sc), vehicle: olive oil, sesame oil, peanut oil); 95 % of control (dose: 400.0 mg/kg/injection, schedule: Q04DX003 (sc), vehicle: olive oil, sesame oil, peanut oil).

As for `CC(C)(C(=O)O)S(=O)(=O)O`, the T/C reads like this: (dose: 100.0 mg/kg/injection, schedule: Q01DX009 (ip), vehicle: saline) 108 % of control; (dose: 200.0 mg/kg/injection, schedule: Q01DX009 (ip), vehicle: saline) 97 % of control; (dose: 400.0 mg/kg/injection, schedule: Q01DX009 (ip), vehicle: saline) 103 % of control.

`CC(=O)Nc1ccc(OC(=O)Nc2ccccc2F)cc1`: the T/C is 98 % of control under setting [2], 101 % of control under setting [7] and 106 % of control under setting [3].
